Reference: PMC9655428, “N-Hydroxy-N-Propargylamide Derivatives of Ferulic Acid: Inhibitors of Cholinesterases and Monoamine Oxidases” (Molecules, 2022)
“Also recorded” adds a separate entry of the source.

Tests used:
hAChE = target: T1, hAChE (Homo sapiens, UniProt P22303); assay: Inhibition of hAChE (Ellman spectrophotometric assay); assay type: biochemical; settings: for hAChE % @ 10 µM: inhibition at 10 µM; for IC50: seven concentrations 30–0.01 µM
T1 construct: purchased Sigma Aldrich
Protocol: (§1) Inhibition assays were performed according to previously published protocols. […] Compound 3 is a hydroxamate in which the piperidine ring is attached to the C4 oxygen via an n-butyl linker, while compound 6 is a corresponding N-propargylhydroxamate.
(§2) Inhibition assays were performed according to previously published protocols. […] Briefly, the classical Ellman spectrophotometric assay (for ChEs) and fluorimetric detection of 4-hydroxyquinoline (for MAOs) were adapted to a plate reading procedure using 96-well microtiter plates (Greiner Bio-Frickenhausen, Frickenhausen, Germany). Readings were performed using the Infinite M1000 Pro plate reader (Tecan, Cernusco s.N., Cernusco sul Naviglio, MI, Italy), and statistical regression was performed using Prism software (GraphPad Prism version 5.00 for Windows, GraphPad Software, San Diego, CA, USA).

hBChE = target: T2, hBChE (Homo sapiens, UniProt P06276); assay: Inhibition of hBChE (Ellman spectrophotometric assay); assay type: biochemical; settings: ni = no inhibition; for hBChE % @ 10 µM: inhibition at 10 µM
T2 construct: purchased Sigma Aldrich
Protocol: as §1, §2

hMAO-A = target: T3, hMAO-A (Homo sapiens, UniProt P21397); assay: Inhibition of hMAO-A (fluorimetric detection of 4-hydroxyquinoline); assay type: biochemical; settings: ni = no inhibition
T3 construct: purchased Sigma Aldrich
T3 sequence (P21397 1-527): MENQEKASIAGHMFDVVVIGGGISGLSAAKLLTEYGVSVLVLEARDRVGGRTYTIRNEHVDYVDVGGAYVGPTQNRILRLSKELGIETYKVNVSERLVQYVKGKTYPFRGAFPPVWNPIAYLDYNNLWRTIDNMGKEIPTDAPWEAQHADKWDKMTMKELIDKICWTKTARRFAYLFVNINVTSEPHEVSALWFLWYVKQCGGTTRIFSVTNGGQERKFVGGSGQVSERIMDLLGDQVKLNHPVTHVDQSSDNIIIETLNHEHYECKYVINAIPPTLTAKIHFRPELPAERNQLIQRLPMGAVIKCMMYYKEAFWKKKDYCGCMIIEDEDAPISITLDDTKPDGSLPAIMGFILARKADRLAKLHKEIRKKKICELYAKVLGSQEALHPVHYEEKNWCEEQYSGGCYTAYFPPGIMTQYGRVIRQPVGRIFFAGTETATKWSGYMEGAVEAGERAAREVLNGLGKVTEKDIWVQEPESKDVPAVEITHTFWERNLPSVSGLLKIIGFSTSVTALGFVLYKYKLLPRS
Protocol: as §1, §2

hMAO-B = target: T4, hMAO-B (Homo sapiens, UniProt P27338); assay: Inhibition of hMAO-B (fluorimetric detection of 4-hydroxyquinoline); assay type: biochemical; settings: ni = no inhibition
T4 construct: purchased Sigma Aldrich
T4 sequence (P27338 1-520): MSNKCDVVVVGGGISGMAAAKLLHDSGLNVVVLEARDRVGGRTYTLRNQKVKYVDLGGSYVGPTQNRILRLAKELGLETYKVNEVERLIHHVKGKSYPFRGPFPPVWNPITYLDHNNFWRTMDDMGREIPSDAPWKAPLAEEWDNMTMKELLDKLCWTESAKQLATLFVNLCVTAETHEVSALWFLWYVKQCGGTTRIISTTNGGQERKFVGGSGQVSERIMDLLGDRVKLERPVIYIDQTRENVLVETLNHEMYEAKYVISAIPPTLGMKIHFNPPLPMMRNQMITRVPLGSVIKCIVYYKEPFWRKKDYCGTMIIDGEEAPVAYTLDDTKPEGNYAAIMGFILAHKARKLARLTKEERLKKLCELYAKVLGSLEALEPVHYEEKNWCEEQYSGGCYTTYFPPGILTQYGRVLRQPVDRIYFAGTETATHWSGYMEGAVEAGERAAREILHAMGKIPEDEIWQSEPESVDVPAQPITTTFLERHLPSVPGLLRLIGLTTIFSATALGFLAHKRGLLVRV
Protocol: as §1, §2

[1] = DPPH radical-scavenging assay; settings: DPPH 70 µM in MeOH, 1.5 h incubation
Description: In addition, antioxidants or natural products containing polyphenols are also being investigated in clinical trials involving AD patients. Therefore, the antioxidant properties of compound 4 were investigated using the 2,2-diphenyl-1-picrylhydrazyl radical (DPPH) scavenging assay, a simple and reliable in vitro assay. […] Hydroxamic acids are considered to be potent antioxidants, and, in combination with cholinesterase inhibitory activity, could not only alleviate symptoms but also have disease-modifying effects.
Compound 4 at concentrations of 3.125–50 µM was incubated for 1.5 h with 2,2-diphenyl-1-picrylhydrazyl radical (DPPH, 70 µM) in MeOH, and absorbance was measured (λ = 517 nm) using a Synergy™ H4 reader (BioTek Instruments, Inc., Winooski, VT, USA). The experiment was performed in three technical replicates, and the blank sample (compound 4 without DPPH) was subtracted. The results are expressed as the percentage of DPPH free radicals (DPPH free radicals (%) = ((A0 − A1)/A0) × 100, where A0 is the absorbance of DPPH in MeOH and A1 is the absorbance of DPPH in the presence of compound 4).

[2] = Metal chelation, UV-Vis absorption assay, Cu2+; assay type: physicochemical; settings: 30 µM compound, equimolar CuCl2, 30 min, pH 7.4
Protocol: (§3) Another therapeutic possibility currently under investigation is metal chelation, which could affect not only the redox cycling of metal ions but also Aβ- and tau-pathology. Metal chelation of compound 4 was investigated using a UV-Vis absorption assay, in which the compound was incubated with equimolar concentrations of the major bivalent biometals (i.e., Ca^2+, Mg^2+, Zn^2+, Cu^2+, Fe^2+, Mn^2+, Co^2+, and Ni^2+) (Figure 4).
(§4) Metal chelation was determined in assay buffer (20 mM Na-HEPES, 150 mM NaCl, pH 7.4) according to the procedure described previously. Stock solutions of the metals at 100 mM concentrations were prepared in MilliQ water (Milli-Q advantage A10 Ultrapure Water Purification System, Millipore, KGaA, Darmstadt, Germany). The FeCl2 stock solution (100 mM) was prepared in the presence of ascorbic acid (1 mM). Compound 4 at a concentration of 30 μM was incubated for 30 min with equimolar concentrations of CuCl2, ZnCl2, MgCl2, CaCl2, MnCl2, FeCl2, CoCl2, and NiCl2. Absorbance spectra were measured on a Synergy™ H4 reader (BioTek Instruments, Inc., Winooski, VT, USA).

[3] = Metal chelation, UV-Vis absorption assay, Fe2+; assay type: physicochemical; settings: 30 µM compound, equimolar FeCl2, 30 min, pH 7.4
Protocol: as §3, §4

[4] = Metal chelation, UV-Vis absorption assay, Ca2+; assay type: physicochemical; settings: 30 µM compound, equimolar CaCl2, 30 min, pH 7.4
Protocol: as §3, §4

T2 sequence (P06276 29-602): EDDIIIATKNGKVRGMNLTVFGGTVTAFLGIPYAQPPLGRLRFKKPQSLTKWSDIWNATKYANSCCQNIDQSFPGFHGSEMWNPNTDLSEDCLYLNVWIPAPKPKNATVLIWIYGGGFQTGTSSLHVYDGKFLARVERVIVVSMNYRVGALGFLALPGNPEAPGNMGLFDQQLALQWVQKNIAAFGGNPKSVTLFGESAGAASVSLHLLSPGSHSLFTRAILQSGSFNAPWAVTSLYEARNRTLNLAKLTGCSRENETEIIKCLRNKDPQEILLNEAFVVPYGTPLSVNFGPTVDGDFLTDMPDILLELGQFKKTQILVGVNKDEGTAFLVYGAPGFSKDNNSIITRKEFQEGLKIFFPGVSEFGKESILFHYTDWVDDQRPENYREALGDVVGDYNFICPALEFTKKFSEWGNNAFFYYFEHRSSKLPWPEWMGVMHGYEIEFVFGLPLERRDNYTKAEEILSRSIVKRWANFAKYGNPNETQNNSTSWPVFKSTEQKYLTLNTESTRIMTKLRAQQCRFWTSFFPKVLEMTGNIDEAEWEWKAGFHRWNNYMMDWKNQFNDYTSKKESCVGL
T1 sequence (P22303 32-614): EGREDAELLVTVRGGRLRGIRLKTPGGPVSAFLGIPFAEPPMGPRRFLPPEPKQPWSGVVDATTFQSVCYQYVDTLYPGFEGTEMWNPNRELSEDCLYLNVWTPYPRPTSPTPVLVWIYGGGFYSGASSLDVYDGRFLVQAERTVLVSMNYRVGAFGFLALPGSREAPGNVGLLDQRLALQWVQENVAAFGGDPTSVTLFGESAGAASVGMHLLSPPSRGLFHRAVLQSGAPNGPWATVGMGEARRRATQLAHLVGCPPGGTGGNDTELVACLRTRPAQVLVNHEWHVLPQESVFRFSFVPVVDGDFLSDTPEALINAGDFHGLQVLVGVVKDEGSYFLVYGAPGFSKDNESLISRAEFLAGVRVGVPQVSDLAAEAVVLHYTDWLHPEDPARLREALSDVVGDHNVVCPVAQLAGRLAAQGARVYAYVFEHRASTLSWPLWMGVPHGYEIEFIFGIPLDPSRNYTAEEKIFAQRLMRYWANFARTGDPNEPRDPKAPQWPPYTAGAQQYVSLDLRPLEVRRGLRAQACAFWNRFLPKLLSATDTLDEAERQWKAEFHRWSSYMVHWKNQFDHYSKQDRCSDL

| SMILES | hAChE % @ 10 µM (hAChE) | inhibition at 10 µM (hMAO-A) | inhibition at 10 µM (hMAO-B) | hBChE % @ 10 µM (hBChE) | IC50 (hAChE) | further results |
| --- | --- | --- | --- | --- | --- | --- |
| COc1cc(/C=C/C(=O)NO)ccc1OCCN1CCCCC1 [Compound 1, (E)-N-Hydroxy-3-(3-methoxy-4-(2-(piperidin-1-yl)ethoxy)phenyl)acrylamide] | 51 ± 2% | 20 ± 5% | 26 ± 5% | – | – | inhibition at 10 µM (hBChE): 18 ± 4% |
| COc1cc(/C=C/C(=O)NO)ccc1OCCCN1CCCCC1 [Compound 2, (E)-N-Hydroxy-3-(3-methoxy-4-(3-(piperidin-1-yl)propoxy)phenyl)acrylamide] | 42 ± 2% | 15 ± 5% | 21 ± 4% | ni | – | – |
| COc1cc(/C=C/C(=O)NO)ccc1OCCCCN1CCCCC1 [Compound 3, (E)-N-Hydroxy-3-(3-methoxy-4-(4-(piperidin-1-yl)butoxy)phenyl)acrylamide] | – | 5 ± 3% | 11 ± 4% | ni | 6.58 ± 0.27 µM | – |
| C#CCN(O)C(=O)/C=C/c1ccc(OCCN2CCCCC2)c(OC)c1 [Compound 4, (E)-N-Hydroxy-3-(3-methoxy-4-(2-(piperidin-1-yl)ethoxy)phenyl)-N-(prop-2-yn-1-yl)acrylamide] | – | 26 ± 5% | 20 ± 4% | – | 2.63 ± 0.57 µM | inhibition at 10 µM (hBChE): 38 ± 2%; EC50 [1]: 40.9 ± 0.5 µM; Cu^2+ chelation (spectral change) [2]: efficiently bound Cu^2+ ions; also recorded: chelated divalent copper ions; Fe^2+ chelation (spectral change) [3]: ferrous ions were also bound; Ca^2+ chelation (spectral change) [4]: does not appear to be due to the formation of a Ca^2+/4 complex |
| C#CCN(O)C(=O)/C=C/c1ccc(OCCCN2CCCCC2)c(OC)c1 [Compound 5, (E)-N-Hydroxy-3-(3-methoxy-4-(3-(piperidin-1-yl)propoxy)phenyl)-N-(prop-2-yn-1-yl)acrylamide] | 41 ± 4% | 23 ± 6% | 16 ± 5% | ni | – | – |
| C#CCN(O)C(=O)/C=C/c1ccc(OCCCCN2CCCCC2)c(OC)c1 [Compound 6, (E)-N-Hydroxy-3-(3-methoxy-4-(4-(piperidin-1-yl)butoxy)phenyl)-N-(prop-2-yn-1-yl)acrylamide] | – | – | – | ni | 7.2 ± 0.54 µM | hMAO-A % @ 10 µM (hMAO-A; inhibition at 10 µM): ni; hMAO-B % @ 10 µM (hMAO-B; inhibition at 10 µM): ni |
| O=C(NO)c1ccccc1 [Compound 15, N-Hydroxybenzamide] | 58 ± 5% | 11 ± 3% | 16 ± 3% | ni | – | – |
| C#CCN(O)C(=O)c1ccccc1 [Compound 16, N-Hydroxy-N-(prop-2-yn-1-yl)benzamide] | 40 ± 4% | 14 ± 4% | 16 ± 5% | ni | – | – |
| Cc1c(C)c2c(c(C)c1O)CCC(C)(C(=O)O)O2 (stereo not shown) [Trolox, reference compound] | – | – | – | – | – | EC50 [1]: 12.4 ± 0.3 µM |
